Experimental data: ChEMBL document CHEMBL3352631, “The identification of 7-[(R)-2-((1S,2S)-2-benzyloxycyclopentylamino)-1-hydroxyethyl]-4-hydroxybenzothiazolone as an inhaled long-acting β2-adrenoceptor agonist” (Bioorg Med Chem Lett, 2014)

Columns and labels:
[1] = Lipophilicity, logD of the compound at pH 7.4 by chromatographic method; type: physicochemical; conditions: buffer
[2] = system: Rattus norvegicus; assay: Volume of distribution at steady state in rat at 5 umol/kg, iv; type: ADME, organism-based; conditions: in vivo
[3] = system: Rattus norvegicus; assay: Volume of distribution at steady state in rat at 2.1 umol/kg, iv; type: ADME, organism-based; conditions: in vivo

Row | SMILES | chromatographic logD [1] | Vdss [2] [mL/min/kg] | Vdss [3] [mL/min/kg]
1 | CCc1cc2c(cc1CC)CC(NC[C@H](O)c1ccc(O)c3[nH]c(=O)ccc13)C2 [INDACATEROL] | 1.77 | 4.1 | 
2 | O=c1[nH]c2c(O)ccc([C@@H](O)CN[C@H]3CCC[C@@H]3OCc3ccccc3)c2s1 | 1.25 |  | 6.2
